Measured values: patent US11026917B2, “Antioxidative stress compositions, methods of preparing and uses thereof” (priority 2016, dated 2021)

Assay: Concentrations of chemopreventive compounds and metabolites in dog serum by LC-MS/MS
Format: in vivo
Procedure: Serum was isolated from whole blood obtained during the two phases of the trial and analysed by LC-MS/MS.
Whole blood (6 ml) was collected from each canine subject at the end of the first and second phases of the study. Blood was obtained by venipuncture from either the cephalic or jugular vein (typically with an 18-20 gauge needle attached to a 10 ml syringe). Manual restraint and aseptic techniques were used. The blood from each dog was placed in labelled collection tubes (2 ml in lavender EDTA collection tubes, 1 ml in green lithium heparin collection tubes, and 3 ml in red silicone coated tubes). The lavender tubes were inverted and used to run Complete Blood Counts (CBC) and for isolation of lymphocytes, the green tubes were inverted and used to run Comprehensive Chemistry Blood Profiles (CCBP), and the blood within the red tubes were allowed to clot, and then centrifuged for 15 min at 3400 rpm to obtain serum. The serum was frozen prior to analysis by LC-MS/MS. The CBC and CCBPs were run on Abaxis™ VetScan machines, particularly the VS2 and HMS.
Liquid-liquid extraction was used to prepare dog serum for mass spectrometric analysis. Briefly, 300 μl of serum was mixed with 900 μl of ice-cold acetonitrile. Each sample was vortex mixed for 20 sec and then centrifuged for 10 min at 13,000×g. The supernatant was removed and evaporated to dryness under a stream of nitrogen, and each extract was reconstituted in 100 μl of acetonitrile/water (20:80, v/v) prior to analysis using LC-MS/MS.
Both instruments were equipped with negative ion electrospray and interfaced to Shimadzu HPLC systems (Prominence Ark. or Nexera, respectively). A Waters (Milford, Mass.) XBridge C18 column (2.1×100 mm; 2.5 μm) was used for chromatographic separations. The solvent system consisted of a 5-min linear gradient from 10% to 90% acetonitrile in water at a flow rate of 400 μl/min. The injection volume was 10 μl.
For quantitative analysis, selected reaction monitoring (SRM) was used with collision-induced dissociation and argon as the collision gas. Deprotonated molecules of each analyte were used as precursor ions, and the SRM transitions of the two most abundant product ions were selected as quantifiers and qualifiers, respectively. In some cases, only one SRM transition (quantifier) was used due to the low abundances of other fragment ions. […] The SRM transitions for genistein were m/z 269 to 89 and m/z 269 to 187, and the SRM transitions for genistein glucuronide and genistein sulfate were m/z 445 to 269 and m/z 349 to 269, respectively. Quercetin was measured using the SRM transitions of m/z 301 to 151 and m/z 301 to 179, and its glucuronide and sulfate metabolites were monitored using the transitions of m/z 477 to 301 and m/z 381 to 301, respectively. Synthetic isopentyl naringenin was used as an internal standard (SRM transition m/z 341 to 119).

Compound | concentration at 3 weeks (dog, in vivo) [ng/mL] | detection in dog serum (in words) (dog, in vivo) | further results
COc1cc(/C=C/C(=O)CC(=O)/C=C/c2ccc(O[C@@H]3O[C@H](C(=O)O)[C@@H](O)[C@H](O)[C@H]3O)c(OC)c2)ccc1O [Curcumin glucuronide] | – | detected at low levels in serum of two dogs | –
O=c1oc2c(O)c(O)cc3c(=O)oc4c(O)c(O)cc1c4c23 [Ellagic acid] | – | No ellagic acid or curcumin was detected in serum | –
O=c1c(-c2ccc(O)cc2)coc2cc(O)cc(O)c12 [Genistein] | – | – | detection in dog serum (in words) (second phase, after 3 weeks of two biscuits/day): no unconjugated genistein was detected
O=c1c(O)c(-c2ccc(O)c(O)c2)oc2cc(O)cc(O)c12 [Quercetin] | – | – | Concentration in serum, Second phase (dog, in vivo, 3 weeks): 2 ± 1 ng/mL
O=S(=O)(O)Oc1cc(O)cc(C=Cc2ccc(O)cc2)c1 [resveratrol-3-sulfate] | – | most abundant form of resveratrol in dog serum | –

Now from value to molecule, other results behind:

concentration at 3 weeks (dog, in vivo) [ng/mL] | Compound | detection in dog serum (in words) (dog, in vivo) | further results
19.3 ± 11 | Oc1ccc(C=Cc2cc(O)cc(O)c2)cc1 [Resveratrol] | – | –
13.6 ± 5.27 | O=S(=O)(O)Oc1cc(O)cc(/C=C\c2ccc(O)cc2)c1 [cis-Resveratrol-3-sulfate] | – | –
44.4 ± 12.2 | O=S(=O)(O)Oc1ccc(/C=C/c2cc(O)cc(O)c2)cc1 [trans-Resveratrol-4′-sulfate] | – | –
